Assay results: patent publication US11174240B2, “Crystalline solid compound of 3-phenyl-4-propyl-1-(pyridin-2-yl)-1H-pyrazol-5-ol hydrochloride” (Aptabio Therapeutics Inc., priority 2017, dated 2021)

Tests used:
Assay type in all cases: physicochemical
[1] = Hygroscopicity test (Karl-Fischer water content under accelerated storage); settings: for Water content (%) 1 day: 1 day at 40° C. / 75% relative humidity; for Water content (%) 1 day / Water content (%) 3 days / Water content (%) 7 days: Petri dish without sealing; for Water content (%) 3 days: 3 days at 40° C. / 75% relative humidity; for Water content (%) 7 days: 7 days at 40° C. / 75% relative humidity; for Water content (%) Initial: before storage at 40° C. / 75% relative humidity
Experimental: (§1) Hygroscopicity comparison experiments were conducted on each of the crystalline free base compound (Example 1), the crystalline hydrochloride compound (Example 2), the non-crystalline free base compound (Comparative Example 1), the non-crystalline hydrochloride compound (Comparative Example 2) and various crystalline acid addition compounds (Comparative Example 3).
The test compounds were exposed in a Petri dish under accelerated storage conditions at a temperature of 40° C. and a relative humidity of 75% for 7 days without sealing. The water content of each test compound was measured using a Karl-Fischer moisture meter. Table 2 summarizes the water content (%) of each test compound measured during the storage period.

[2] = Stability comparison test (long-term storage, HPLC of decomposition product of Formula 3 and total impurities); settings: for Concentration of decomposition product of Formula 3 (%) 6 months / Total impurity concentration (%) 6 months: 6 months at 25° C. / 60% relative humidity
Experimental: as §1, with “Stability” for “Hygroscopicity”
The test compound was stored in a chamber for stability measurement under long-term storage conditions at a temperature of 25° C. and a relative humidity of 60% for 6 months. For storage, each test compound was placed in a double polyethylene bag, and the polyethylene bag was filled with a silica gel pouch and was then placed in a small paper box (fiber drum).
The following Table 3 summarizes the results of the measurement of the concentration of the degradation product of Formula 3 and the total impurity concentration by HPLC analysis after storage under long-term storage conditions for 6 months.
[Analytical Conditions of Liquid Chromatography (HPLC)]
Column temperature: 35° C.
Detector: UV Detector (246 nm)
Gradient condition of mobile phase: […]

[3] = Evaluation of polymorphic transition (PXRD and DSC after storage); settings: for DSC endothermic temperature 4 weeks: 4 weeks at 40° C. / 75% relative humidity in polyethylene bag; for DSC endothermic temperature Initial: initial state; for Comparison and determination results (polymorphic transition): initial vs 4 weeks at 40° C. / 75% relative humidity, PXRD and DSC
Experimental: In order to determine whether or not the polymorphic transition phenomenon occurs under the storage conditions in the crystalline free base compound (Example 1) and the crystalline hydrochloride compound (Example 2), the results of PXRD analysis in the initial state and the possibility of polymorphic transition over time were examined.
Specifically, the test compound was stored in a polyethylene bag in a chamber for stability measurement at a temperature of 40° C. and a relative humidity of 75% for 4 weeks. Also, PXRD and DSC analysis results, measured at the initial state and after 4 weeks, were compared.

Water content (%) 1 day [1]	Water content (%) 3 days [1]	Water content (%) 7 days [1]	Water content (%) Initial [1]	Concentration of decomposition product of Formula 3 (%) 6 months [2]	Total impurity concentration (%) 6 months [2]	Concentration of decomposition product of Formula 3 (%) Initial [2]	Total impurity concentration (%) Initial [2]	Water content (%) 1 day ([1]; hydrochloride)	Water content (%) 3 days ([1]; hydrochloride)	Water content (%) 7 days ([1]; hydrochloride)	Water content (%) Initial ([1]; hydrochloride)	Concentration of decomposition product of Formula 3 (%) 6 months ([2]; hydrochloride)	Total impurity concentration (%) 6 months ([2]; hydrochloride)	Concentration of decomposition product of Formula 3 (%) Initial ([2]; hydrochloride)	Total impurity concentration (%) Initial ([2]; hydrochloride)	DSC endothermic temperature 4 weeks [3]	DSC endothermic temperature Initial [3]	Comparison and determination results (polymorphic transition) [3]	Comparison and determination results (polymorphic transition) ([3]; hydrochloride)	SMILES
1.58%	1.75%	2.80%	0.45%	0.78%	3.27%	0.12%	0.58%	–	–	–	–	–	–	–	–	–	–	–	–	CCCc1c(-c2ccccc2)nn(-c2ccccn2)c1O [L-malate, 3-phenyl-4-propyl-1-(pyridin-2-yl)-1H-pyrazol-5-ol]
0.34%	0.34%	0.38%	0.33%	0.54%	1.85%	0.10%	0.40%	–	–	–	–	–	–	–	–	–	–	–	–	CCCc1c(-c2ccccc2)nn(-c2ccccn2)c1O [L-tartrate, 3-phenyl-4-propyl-1-(pyridin-2-yl)-1H-pyrazol-5-ol]
0.42%	0.44%	0.48%	0.37%	0.38%	1.65%	0.09%	0.48%	–	–	–	–	–	–	–	–	–	–	–	–	CCCc1c(-c2ccccc2)nn(-c2ccccn2)c1O [Succinate, 3-phenyl-4-propyl-1-(pyridin-2-yl)-1H-pyrazol-5-ol]

The next lines start with the compound.

SMILES	Water content (%) 1 day [1]	Water content (%) 3 days [1]	Water content (%) 7 days [1]	Water content (%) Initial [1]	Concentration of decomposition product of Formula 3 (%) 6 months [2]	Total impurity concentration (%) 6 months [2]	Concentration of decomposition product of Formula 3 (%) Initial [2]	Total impurity concentration (%) Initial [2]	Water content (%) 1 day ([1]; hydrochloride)	Water content (%) 3 days ([1]; hydrochloride)	Water content (%) 7 days ([1]; hydrochloride)	Water content (%) Initial ([1]; hydrochloride)	Concentration of decomposition product of Formula 3 (%) 6 months ([2]; hydrochloride)	Total impurity concentration (%) 6 months ([2]; hydrochloride)	Concentration of decomposition product of Formula 3 (%) Initial ([2]; hydrochloride)	Total impurity concentration (%) Initial ([2]; hydrochloride)	DSC endothermic temperature 4 weeks [3]	DSC endothermic temperature Initial [3]	Comparison and determination results (polymorphic transition) [3]	Comparison and determination results (polymorphic transition) ([3]; hydrochloride)
CCCc1c(-c2ccccc2)nn(-c2ccccn2)c1O [Comparative Example 1, 3-phenyl-4-propyl-1-(pyridin-2-yl)-1H-pyrazol-5-ol]	1.30%	2.27%	2.95%	0.33%	0.65%	7.58%	0.06%	0.26%	–	–	–	–	–	–	–	–	–	–	–	–
CCCc1c(-c2ccccc2)nn(-c2ccccn2)c1O.Cl [Comparative Example 2, 3-phenyl-4-propyl-1-(pyridin-2-yl)-1H-pyrazol-5-ol hydrochloride]	–	–	–	–	–	–	–	–	1.98%	3.54%	7.52%	0.31%	0.92%	5.87%	0.05%	0.35%	–	–	–	–
CCCc1c(-c2ccccc2)nn(-c2ccccn2)c1O [Example 1, 3-phenyl-4-propyl-1-(pyridin-2-yl)-1H-pyrazol-5-ol]	0.29%	0.32%	0.34%	0.26%	0.09%	0.47%	0.05%	0.32%	–	–	–	–	–	–	–	–	72.8 °C	73.54 °C	no polymorphic transition occurred	–
CCCc1c(-c2ccccc2)nn(-c2ccccn2)c1O.Cl [Example 2, 3-phenyl-4-propyl-1-(pyridin-2-yl)-1H-pyrazol-5-ol hydrochloride]	–	–	–	–	–	–	–	–	0.31%	0.37%	0.39%	0.25%	0.08%	0.45%	0.03%	0.28%	133.4 °C	134.25 °C	–	no polymorphic transition occurred
CCCc1c(-c2ccccc2)nn(-c2ccccn2)c1O [Hemi-1,5-naphthalene disulfonate, 3-phenyl-4-propyl-1-(pyridin-2-yl)-1H-pyrazol-5-ol]	0.12%	0.13%	0.15%	0.12%	0.35%	1.24%	0.08%	0.52%	–	–	–	–	–	–	–	–	–	–	–	–
